Results published in patent US20250114345A1, “COMPOUNDS AND COMPOSITIONS AS CBP/P300 DEGRADERS AND USES THEREOF” (Oncopia Therapeutics, Inc. d/b/a/ SK Life Science Labs, priority 2023, published 2025).

Legend:
p300 = molecular target: T1, p300 (Homo sapiens, UniProt Q09472); experiment: P300 degradation, HiBit technology in A549 P300 HiBit cells (2 h); assay type: cell-based; details: 2 hrs post treatment; for Dmax: A549, A549 P300 HiBit cells; for DC50: A549 P300 HiBit cells
T1 construct: host or cells: A549 P300 HiBit cells
T1 sequence (Q09472 whole entry): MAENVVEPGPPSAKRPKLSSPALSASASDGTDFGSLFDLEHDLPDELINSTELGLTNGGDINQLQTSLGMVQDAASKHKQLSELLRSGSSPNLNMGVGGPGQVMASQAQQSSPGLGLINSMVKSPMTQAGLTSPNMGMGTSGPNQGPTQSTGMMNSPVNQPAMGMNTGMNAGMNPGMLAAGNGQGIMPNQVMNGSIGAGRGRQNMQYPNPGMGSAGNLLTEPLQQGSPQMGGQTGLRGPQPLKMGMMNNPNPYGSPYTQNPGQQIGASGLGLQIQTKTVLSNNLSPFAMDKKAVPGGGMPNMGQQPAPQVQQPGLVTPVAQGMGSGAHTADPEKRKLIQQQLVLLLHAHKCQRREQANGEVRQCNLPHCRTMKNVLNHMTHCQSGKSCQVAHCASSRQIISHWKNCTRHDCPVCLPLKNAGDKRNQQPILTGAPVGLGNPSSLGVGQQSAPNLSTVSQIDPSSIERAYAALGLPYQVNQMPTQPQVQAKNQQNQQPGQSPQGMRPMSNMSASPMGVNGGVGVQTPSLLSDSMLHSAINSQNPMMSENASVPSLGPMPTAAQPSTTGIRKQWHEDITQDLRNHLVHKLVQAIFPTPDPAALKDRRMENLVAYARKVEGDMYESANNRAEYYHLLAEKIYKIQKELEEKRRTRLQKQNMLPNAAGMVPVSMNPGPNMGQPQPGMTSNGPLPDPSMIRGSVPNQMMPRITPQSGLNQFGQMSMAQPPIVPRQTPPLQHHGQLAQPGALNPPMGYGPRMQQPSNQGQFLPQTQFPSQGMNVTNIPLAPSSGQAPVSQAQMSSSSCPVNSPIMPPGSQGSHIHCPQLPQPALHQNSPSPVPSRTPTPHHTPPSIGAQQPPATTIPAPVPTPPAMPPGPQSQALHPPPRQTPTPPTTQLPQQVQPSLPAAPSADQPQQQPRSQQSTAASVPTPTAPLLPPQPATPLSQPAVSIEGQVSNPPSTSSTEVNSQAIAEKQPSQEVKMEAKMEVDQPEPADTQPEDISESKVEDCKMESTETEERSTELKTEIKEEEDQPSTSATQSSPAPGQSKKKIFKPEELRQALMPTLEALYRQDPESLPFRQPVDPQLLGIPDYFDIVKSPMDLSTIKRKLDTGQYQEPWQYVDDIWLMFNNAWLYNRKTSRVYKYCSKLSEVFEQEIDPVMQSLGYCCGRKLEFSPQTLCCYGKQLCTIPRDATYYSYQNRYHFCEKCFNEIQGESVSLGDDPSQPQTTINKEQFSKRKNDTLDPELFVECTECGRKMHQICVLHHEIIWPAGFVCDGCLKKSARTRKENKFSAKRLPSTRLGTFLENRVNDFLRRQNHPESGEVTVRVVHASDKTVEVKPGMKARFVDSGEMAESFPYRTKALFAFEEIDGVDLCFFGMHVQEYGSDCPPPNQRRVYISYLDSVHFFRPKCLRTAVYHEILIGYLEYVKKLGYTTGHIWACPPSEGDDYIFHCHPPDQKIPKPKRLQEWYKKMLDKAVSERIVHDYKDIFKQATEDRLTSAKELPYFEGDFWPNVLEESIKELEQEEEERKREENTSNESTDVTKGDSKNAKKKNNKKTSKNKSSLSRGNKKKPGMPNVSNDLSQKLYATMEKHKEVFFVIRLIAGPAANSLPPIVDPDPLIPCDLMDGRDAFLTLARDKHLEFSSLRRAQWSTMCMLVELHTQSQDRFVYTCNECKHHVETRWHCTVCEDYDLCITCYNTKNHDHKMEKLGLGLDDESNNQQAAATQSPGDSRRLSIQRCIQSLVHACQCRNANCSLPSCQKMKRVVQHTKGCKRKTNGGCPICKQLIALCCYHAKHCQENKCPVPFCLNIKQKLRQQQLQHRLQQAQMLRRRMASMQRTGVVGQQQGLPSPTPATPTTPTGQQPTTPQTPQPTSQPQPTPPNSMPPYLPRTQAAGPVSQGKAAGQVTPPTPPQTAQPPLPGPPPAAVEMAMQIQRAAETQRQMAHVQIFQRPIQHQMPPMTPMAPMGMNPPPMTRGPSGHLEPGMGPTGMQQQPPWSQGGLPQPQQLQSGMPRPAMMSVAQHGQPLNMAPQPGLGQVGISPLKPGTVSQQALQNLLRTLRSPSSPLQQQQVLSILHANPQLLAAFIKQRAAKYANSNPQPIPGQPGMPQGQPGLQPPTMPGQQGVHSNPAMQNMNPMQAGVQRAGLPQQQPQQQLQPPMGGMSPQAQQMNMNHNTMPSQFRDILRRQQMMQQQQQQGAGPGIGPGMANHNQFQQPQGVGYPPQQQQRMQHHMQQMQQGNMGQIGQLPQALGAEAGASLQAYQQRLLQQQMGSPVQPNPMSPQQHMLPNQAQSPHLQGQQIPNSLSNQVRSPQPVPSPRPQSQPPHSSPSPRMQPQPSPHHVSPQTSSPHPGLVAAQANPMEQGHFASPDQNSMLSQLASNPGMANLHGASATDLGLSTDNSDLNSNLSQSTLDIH
In short: (§1)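 Endogenously HiBiT-tagged A549 cells are plated, left overnight, then treated with a compound dilution series at 37 °C and 5% CO2. At the set time, lytic detection buffer is added and plates are shaken 10 min at room temperature before luminescence is measured to derive potency and Dmax.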

CBP = molecular target: T2, CBP (Homo sapiens, UniProt Q92793); experiment: CBP degradation, HiBit technology in A549 CBP HiBit cells (24 h); assay type: cell-based; details: 24 hrs post treatment
T2 construct: host or cells: A549 CBP HiBit cells
T2 sequence (Q92793 whole entry): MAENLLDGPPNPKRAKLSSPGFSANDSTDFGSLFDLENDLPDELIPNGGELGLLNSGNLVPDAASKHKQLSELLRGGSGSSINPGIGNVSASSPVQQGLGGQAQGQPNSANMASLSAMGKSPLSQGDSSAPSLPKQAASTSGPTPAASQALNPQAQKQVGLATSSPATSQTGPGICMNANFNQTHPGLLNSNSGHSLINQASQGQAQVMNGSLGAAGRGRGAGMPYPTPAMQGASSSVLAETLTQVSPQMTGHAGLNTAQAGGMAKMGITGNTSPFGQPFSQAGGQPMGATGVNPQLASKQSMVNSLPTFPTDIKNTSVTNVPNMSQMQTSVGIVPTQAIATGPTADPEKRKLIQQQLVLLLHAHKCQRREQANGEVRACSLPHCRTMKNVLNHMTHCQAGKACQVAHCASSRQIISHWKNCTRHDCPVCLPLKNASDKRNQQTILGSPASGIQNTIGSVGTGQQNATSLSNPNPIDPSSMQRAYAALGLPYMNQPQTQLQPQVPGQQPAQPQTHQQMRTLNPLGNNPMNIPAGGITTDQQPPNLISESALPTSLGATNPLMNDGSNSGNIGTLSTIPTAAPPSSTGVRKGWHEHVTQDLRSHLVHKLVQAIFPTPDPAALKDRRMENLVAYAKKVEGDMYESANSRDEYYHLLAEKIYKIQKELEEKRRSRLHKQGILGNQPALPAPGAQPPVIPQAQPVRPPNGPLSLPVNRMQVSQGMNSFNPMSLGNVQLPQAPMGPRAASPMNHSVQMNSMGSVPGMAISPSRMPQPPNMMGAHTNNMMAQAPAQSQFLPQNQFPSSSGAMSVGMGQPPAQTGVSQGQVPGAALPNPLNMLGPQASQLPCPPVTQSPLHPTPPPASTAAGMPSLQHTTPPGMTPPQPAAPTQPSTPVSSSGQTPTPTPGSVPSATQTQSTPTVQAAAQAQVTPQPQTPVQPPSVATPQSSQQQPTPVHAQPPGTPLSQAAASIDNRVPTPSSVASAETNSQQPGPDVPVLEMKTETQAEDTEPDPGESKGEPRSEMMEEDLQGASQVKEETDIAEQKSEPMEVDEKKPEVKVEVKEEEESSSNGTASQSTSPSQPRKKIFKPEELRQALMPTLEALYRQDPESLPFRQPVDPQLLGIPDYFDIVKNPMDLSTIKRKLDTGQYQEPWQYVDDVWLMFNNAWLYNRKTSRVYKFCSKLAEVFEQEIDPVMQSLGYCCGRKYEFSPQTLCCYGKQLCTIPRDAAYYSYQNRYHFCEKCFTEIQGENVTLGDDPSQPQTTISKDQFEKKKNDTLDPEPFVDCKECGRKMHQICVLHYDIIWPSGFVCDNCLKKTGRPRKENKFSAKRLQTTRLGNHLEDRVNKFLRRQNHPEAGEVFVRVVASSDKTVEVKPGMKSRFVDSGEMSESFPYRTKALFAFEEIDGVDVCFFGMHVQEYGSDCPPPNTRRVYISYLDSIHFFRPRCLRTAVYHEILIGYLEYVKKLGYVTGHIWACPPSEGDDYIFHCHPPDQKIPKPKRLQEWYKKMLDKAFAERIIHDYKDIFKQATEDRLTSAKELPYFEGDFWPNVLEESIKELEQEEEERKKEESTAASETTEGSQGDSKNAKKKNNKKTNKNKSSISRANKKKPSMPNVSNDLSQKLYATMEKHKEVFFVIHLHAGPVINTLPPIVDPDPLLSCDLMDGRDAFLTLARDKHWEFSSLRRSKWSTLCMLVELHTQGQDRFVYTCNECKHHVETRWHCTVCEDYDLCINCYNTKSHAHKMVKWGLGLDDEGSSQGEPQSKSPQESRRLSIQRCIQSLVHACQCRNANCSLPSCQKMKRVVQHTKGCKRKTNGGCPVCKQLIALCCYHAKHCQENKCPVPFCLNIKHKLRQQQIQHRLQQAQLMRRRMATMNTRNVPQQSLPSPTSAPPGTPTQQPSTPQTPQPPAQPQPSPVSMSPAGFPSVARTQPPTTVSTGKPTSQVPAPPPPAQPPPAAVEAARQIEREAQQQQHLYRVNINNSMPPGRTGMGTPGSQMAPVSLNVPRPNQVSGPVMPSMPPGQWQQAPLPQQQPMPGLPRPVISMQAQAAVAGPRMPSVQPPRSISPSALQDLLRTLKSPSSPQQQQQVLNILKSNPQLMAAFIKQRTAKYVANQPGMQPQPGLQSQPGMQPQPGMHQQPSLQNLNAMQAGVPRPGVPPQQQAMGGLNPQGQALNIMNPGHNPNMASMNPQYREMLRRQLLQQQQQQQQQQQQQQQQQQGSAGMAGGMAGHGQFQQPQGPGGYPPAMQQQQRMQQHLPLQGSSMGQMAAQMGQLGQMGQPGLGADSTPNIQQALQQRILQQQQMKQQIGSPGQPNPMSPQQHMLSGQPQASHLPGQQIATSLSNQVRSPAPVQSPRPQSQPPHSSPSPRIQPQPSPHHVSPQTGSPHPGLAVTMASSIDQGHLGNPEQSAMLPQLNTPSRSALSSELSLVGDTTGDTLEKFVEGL
In short: as §1

| Dmax (p300) | DC50 (p300) | DC50 (CBP) | Dmax (CBP) | Compound |
| --- | --- | --- | --- | --- |
| 60 to 79% | 10 to 99 nM | > 1000 nM | < 20% | Cc1cc(-c2ncc3c(n2)OCCN3c2ccc3c(c2)n(C)c(=O)n3C)cnc1C(=O)NCC#Cc1cc2c(C3CCC(=O)NC3=O)ccc(F)c2o1 (centres unmarked) [Example A203, 5-(5-(1,3-dimethyl-2-oxo-2,3-dihydro-1H-benzo[d]imidazol-5-yl)-6,7-dihydro-5H-pyrimido[4,5-b][1,4]oxazin-2-yl)-N-(3-(4-(2,6-dioxopiperidin-3-yl)-7-fluoro-benzofuran-2-yl)prop-2-yn-1-yl)-3-methylpicolinamide] |
| > 80% | 1 to 9.9 nM | 1 to 9.9 nM | 60 to 79% | CC(C)c1cc(-c2cccc3cc(-c4ccc(C(=O)NCC#Cc5ccc6[nH]nc(C7CCC(=O)NC7=O)c6c5)nc4)ncc23)cc2c1n(C)c(=O)n2C (centres unmarked) [Example A204, N-(3-(3-(2,6-dioxo-piperidin-3-yl)-1H-indazol-5-yl)prop-2-yn-1-yl)-5-(8-(7-isopropyl-1,3-dimethyl-2-oxo-2,3-dihydro-1H-benzo [d]imidazol-5-yl)isoquinolin-3-yl)picolinamide] |
| > 80% | < 1 nM | 100 to 999 nM | < 20% | COc1nc(-c2cnc(C(=O)NCC#Cc3cc4c(C5CCC(=O)NC5=O)cccc4o3)c(C)c2)ncc1Nc1cc(C2CCOCC2)c2c(c1)n(C)c(=O)n2C (centres unmarked) [Example A207, 5-(5-((1,3-dimethyl-2-oxo-7-(tetrahydro-2H-pyran-4-yl)-2,3-dihydro-1H-benzo[d]imidazol-5-yl)amino)-4-methoxypyrimidin-2-yl)-N-(3-(4-(2,6-dioxopiperidin-3-yl)benzofuran-2-yl)prop-2-yn-1-yl)-3-methylpicolinamide] |
| > 80% | 1 to 9.9 nM | 10 to 99 nM | 60 to 79% | CC(C)c1cc(-c2cccc3cc(-c4ccc(C(=O)NCC#Cc5cc6c(C7CCC(=O)NC7=O)nccc6s5)nc4)ncc23)cc2c1n(C)c(=O)n2C (centres unmarked) [Example A208, N-(3-(4-(2,6-dioxo-piperidin-3-yl)thieno[3,2-c]pyridin-2-yl)prop-2-yn-1-yl)-5-(8-(7-isopropyl-1,3-dimethyl-2-oxo-2,3-dihydro-1H-benzo[d]imidazol-5-yl)isoquinolin-3-yl)picolinamide] |
| > 80% | 1 to 9.9 nM | > 1000 nM | < 20% | CC(C)c1cc(N(C)c2cnc(-c3ccc(C(=O)NCC#Cc4ccc5cnn(C6CCC(=O)NC6=O)c5c4)nc3)nc2)cc2c1n(C)c(=O)n2C (centres unmarked) [Example A211, N-(3-(1-(2,6-dioxo-piperidin-3-yl)-1H-indazol-6-yl)prop-2-yn-1-yl)-5-(5-((7-isopropyl-1,3-dimethyl-2-oxo-2,3-dihydro-1H-benzo [d]imidazol-5-yl)(methyl)amino)pyrimidin-2-yl)picolinamide] |
| > 80% | 1 to 9.9 nM | > 1000 nM | < 20% | CC(C)c1cc(-c2cccc3cc(-c4ccc(C(=O)NCC#Cc5ccc6occ(C78CC(C7)C(=O)NC8=O)c6c5)nc4)ncc23)cc2c1n(C)c(=O)n2C [Example A212, N-(3-(3-(2,4-dioxo-3-azabicyclo[3.1.1]heptan-1-yl)benzofuran-5-yl)prop-2-yn-1-yl)-5-(8-(7-isopropyl-1,3-dimethyl-2-oxo-2,3-dihydro-1H-benzo[d]imidazol-5-yl)isoquinolin-3-yl)picolinamide] |
| > 80% | < 1 nM | > 1000 nM | < 20% | Cn1c(=O)n(C)c2cc(-c3cccc4cc(-c5ccc(C(=O)NCC#Cc6cc7c(C8CCC(=O)NC8=O)nccc7o6)nc5)ncc34)ccc21 (centres unmarked) [Example A213, 5-(8-(1,3-dimethyl-2-oxo-2,3-dihydro-1H-benzo[d]imidazol-5-yl)isoquinolin-3-yl)-N-(3-(4-(2,6-dioxo-piperidin-3-yl)furo[3,2-c]pyridin-2-yl)prop-2-yn-1-yl)picolinamide] |
| > 80% | 1 to 9.9 nM | > 1000 nM | < 20% | CC(C)c1cc(-c2cccc3cc(-c4ccc(C(=O)NCC#Cc5cc6cccc(C7CCC(=O)NC7=O)c6o5)nc4)ncc23)cc2c1n(C)c(=O)n2C (centres unmarked) [Example A216, N-(3-(7-(2,6-dioxo-piperidin-3-yl)benzofuran-2-yl)prop-2-yn-1-yl)-5-(8-(7-isopropyl-1,3-dimethyl-2-oxo-2,3-dihydro-1H-benzo [d]imidazol-5-yl)isoquinolin-3-yl)picolinamide] |
| > 80% | < 1 nM | 100 to 999 nM | < 20% | Cc1cc(N2CCN(C)c3nc(-c4ccc(C(=O)NCC#Cc5cc6c(C7CCC(=O)NC7=O)cccc6o5)nc4)ncc32)cc2c1n(C)c(=O)n2C (centres unmarked) [Example A219, N-(3-(4-(2,6-dioxo-piperidin-3-yl)benzofuran-2-yl)prop-2-yn-1-yl)-5-(8-methyl-5-(1,3,7-trimethyl-2-oxo-2,3-dihydro-1H-benzo[d]imidazol-5-yl)-5,6,7,8-tetrahydro-pteridin-2-yl)picolinamide] |
| > 80% | 1 to 9.9 nM | > 1000 nM | < 20% | CC(C)c1cc(-c2cccc3cc(-c4ccc(C(=O)NCC#Cc5cnc6c(c5)c(C5CCC(=O)NC5=O)nn6C)nc4)ncc23)cc2c1n(C)c(=O)n2C (centres unmarked) [Example A221, N-(3-(3-(2,6-dioxo-piperidin-3-yl)-1-methyl-1H-pyrazolo [3,4-b]pyridin-5-yl)prop-2-yn-1-yl)-5-(8-(7-isopropyl-1,3-dimethyl-2-oxo-2,3-dihydro-1H-benzo[d]imidazol-5-yl)isoquinolin-3-yl)picolinamide] |
| > 80% | < 1 nM | 100 to 999 nM | < 20% | Cn1c(=O)n(C)c2c(N3CCOCC3)nc(-c3cccc4cc(-c5ccc(C(=O)NCC#Cc6cc7c(C8CCC(=O)NC8=O)cccc7o6)nc5)ncc34)cc21 (centres unmarked) [Example A223, 5-(8-(1,3-dimethyl-4-morpholino-2-oxo-2,3-dihydro-1H-imidazo[4,5-c]pyridin-6-yl)isoquinolin-3-yl)-N-(3-(4-(2,6-dioxopiperidin-3-yl)benzofuran-2-yl)prop-2-yn-1-yl)picolinamide] |
| > 80% | < 1 nM | 100 to 999 nM | < 20% | Cn1c(=O)n(C)c2cc(N3CCCc4nc(-c5ccc(C(=O)NCC#Cc6cc7c(C8CCC(=O)NC8=O)cccc7o6)nc5)ncc43)ccc21 (centres unmarked) [Example A226, 5-(5-(1,3-dimethyl-2-oxo-2,3-dihydro-1H-benzo[d]imidazol-5-yl)-5,6,7,8-tetrahydropyrido [3,2-d]pyrimidin-2-yl)-N-(3-(4-(2,6-dioxo-piperidin-3-yl)benzofuran-2-yl)prop-2-yn-1-yl)picolinamide] |
| > 80% | 1 to 9.9 nM | > 1000 nM | < 20% | CC(C)c1cc(-c2cccc3cc(-c4ccc(C(=O)NCC#Cc5cc6c(C7CCC(=O)NC7=O)coc6cc5F)nc4)ncc23)cc2c1n(C)c(=O)n2C (centres unmarked) [Example A234, N-(3-(3-(2,6-dioxo-piperidin-3-yl)-6-fluorobenzofuran-5-yl)prop-2-yn-1-yl)-5-(8-(7-isopropyl-1,3-dimethyl-2-oxo-2,3-dihydro-1H-benzo [d]imidazol-5-yl)isoquinolin-3-yl)picolinamide] |
| > 80% | < 1 nM | 100 to 999 nM | < 20% | CC(C)c1cc(N2CCCc3nc(-c4ccc(C(=O)NCC#Cc5cc6c(C7CCC(=O)NC7=O)cccc6o5)nc4)ncc32)cc2c1n(C)c(=O)n2C (centres unmarked) [Example A237, N-(3-(4-(2,6-dioxo-piperidin-3-yl)benzofuran-2-yl)prop-2-yn-1-yl)-5-(5-(7-isopropyl-1,3-dimethyl-2-oxo-2,3-dihydro-1H-benzo [d]imidazol-5-yl)-5,6,7,8-tetrahydro-pyrido[3,2-d]pyrimidin-2-yl)picolinamide] |
| > 80% | < 1 nM | 1 to 9.9 nM | 40 to 59% | Cc1cc(-c2cc3c(cn2)N(c2cc(C(C)C)c4c(c2)n(C)c(=O)n4C)CCC3)cnc1C(=O)NCC#Cc1ccn2ncc(C3CCC(=O)NC3=O)c2c1 (centres unmarked) [Example A238, N-(3-(3-(2,6-dioxo-piperidin-3-yl)pyrazolo[1,5-a]pyridin-5-yl)prop-2-yn-1-yl)-5-(1-(7-isopropyl-1,3-dimethyl-2-oxo-2,3-dihydro-1H-benzo[d]imidazol-5-yl)-1,2,3,4-tetrahydro-1,7-naphthyridin-6-yl)-3-methylpicolinamide] |
| > 80% | 1 to 9.9 nM | > 1000 nM | < 20% | Cn1nc(C2CCC(=O)NC2=O)c2cc(C#CCNC(=O)c3ccc(-c4ncc5c(n4)OCCN5c4ccc5c(c4)n(C)c(=O)n5C)cn3)ccc21 (centres unmarked) [Example A243, 5-(5-(1,3-dimethyl-2-oxo-2,3-dihydro-1H-benzo[d]imidazol-5-yl)-6,7-dihydro-5H-pyrimido[4,5-b][1,4]oxazin-2-yl)-N-(3-(3-(2,6-dioxopiperidin-3-yl)-1-methyl-1H-indazol-5-yl)prop-2-yn-1-yl)picolinamide] |

| Compound | Dmax (p300) | DC50 (p300) | DC50 (CBP) | Dmax (CBP) |
| --- | --- | --- | --- | --- |
| Cn1c(=O)n(C)c2c(N3CC4CC(C3)O4)nc(-c3cccc4cc(-c5ccc(C(=O)NCC#Cc6cc7c(C8CCC(=O)NC8=O)cccc7o6)nc5)ncc34)cc21 (centres unmarked) [Example A210, 5-(8-(4-(6-oxa-3-azabicyclo[3.1.1]heptan-3-yl)-1,3-dimethyl-2-oxo-2,3-dihydro-1H-imidazo[4,5-c]pyridin-6-yl)isoquinolin-3-yl)-N-(3-(4-(2,6-dioxopiperidin-3-yl)benzofuran-2-yl)prop-2-yn-1-yl)picolinamide] | > 80% | < 1 nM | > 1000 nM | < 20% |
